≈ marks a conversion by molar mass, not a printed value. Where two headings read alike, the source gives them in different places. Marks after values point to notes of the source that are not given here.
How the values were obtained:
[1] = system: PfNF54 LGc (stage IV/V gametocytes); assay: PrestoBlue late-stage gametocyte viability assay; format: cell-based, Plasmodium falciparum; details: Plasmodium falciparum, read-out: PfNF54 LGc IC50
Method: Gametocytogenesis was induced on highly synchronized (>95%) asexual ring-stage parasites from PfNF54 at 0.5% parasitemia and 6% hematocrit and thereafter maintained in glucose-deprived media as previously described.[29],[15] After 3 days, the hematocrit was decreased to 4%. Parasites were maintained in complete culture media supplemented with 50 mM N-acetyl-glucosamine 5–10 days post induction to inhibit proliferation of residual asexual blood stages. Gametocyte progression and morphology was also monitored microscopically using Giemsa-stained thin smears.
activity against the sexual stages of P. falciparum was evaluated using the PrestoBlue fluorescence assay as previously described.[4] Activity was measured on PfNF54 stage IV/V gametocytes (2% gametocytemia, 5% hematocrit) previously seeded with compounds (in non-lethal DMSO) for 48 h drug pressure, after which PrestoBlue reagent was added and incubated for 2 h. Fluorescence was detected in the supernatant at 612 nm. Dihydroartemisinin (DHA) was used as a positive drug control.

physchem = format: physicochemical; details: 37 °C, pH 6.5, aqueous buffer, thermodynamic from solid
Method: The stock solutions (10^–2 M) of the assayed compounds were diluted to decreased molarity, from 300 to 0.1 μM, in 384 well transparent plate (Greiner 781801) with 1% DMSO:99% PBS buffer. Then, they were incubated at 37 °C and the light scattering was measured after 2 h in a NEPHELOstar Plus (BMG LABTECH). The results were adjusted to a segmented regression to obtain the maximum concentration in which compounds are soluble.
The solubility of each product was evaluated using an HPLC Agilent 1100 with a DAD detector. The samples were injected in an Agilent Poroshell 120 EC-C18, 2.7 μm, 50 mm × 4.6 mm column at 40 °C and 0.6 mL/min flow. The mobile phase was a mixture of A = water with 0.05% formic acid and B = acetonitrile with 0.05% formic acid. The procedure followed was from 95% A–5% B to 100% B in 3 min, 100% B in 3 min, from 100% B to 95% A–5% B in 1 min, 95% A–5% B in 3 min; the injection volume was set at 75 μL. […] The samples remained at these conditions between 12–24 h. Then, the samples were filtered through a 0.45 μm PVDF filter and either directly analyzed or diluted before analyzing. The obtained area under the curve was compared with the one from the standard solution.

in vitro = in vitro ADME; details: microsomes
Method: The microsomal stability assay used a single-point assay design (Di et al., 2004). Briefly, the compounds were incubated at 1 μM in human, rat, and mouse liver microsomes (0.4 mg/mL) for 30 min at 37 °C. Reactions were quenched by adding ice-cold acetonitrile containing internal standard (carbamazepine, 0.0236 μg/mL). The samples were then centrifuged, and the samples were analyzed by liquid chromatography with tandem mass spectrometry (LC-MS/MS) (Agilent Rapid Resolution HPLC, AB SCIEX 4500 MS) for the disappearance of the parent compound. Half-life, clearance and hepatic […] ratios were determined using standard equations.

male gametes (PfNF54) = assay: Male gamete exflagellation inhibition assay (EIA); format: cell-based; details: Plasmodium falciparum, 48 h, read-out: male gamete inhibition %
Method: The EIA was performed using video microscopy by capturing the movement of exflagellation centers over time as previously described.[4],[30] Mature PfNF54 stage V gametocytes (>95%;) were treated with 2 μM of drug for 48 h before the activation of exflagellation, without removing drug pressure. Movement was semi-automatically quantified from 15 videos of 8–10 s each between 15 and 22.5 min after incubation. Each video was analyzed using ICY-bio image analysis software.

female gametes = assay: Female gamete inhibition assay; format: cell-based, Plasmodium falciparum; parameters: concentration or dose not given beside the values
Method: Similarly, female gametes were activated as described previously.[31] Monoclonal anti-Pfs antibody conjugated to FITC was used to detect female gametes. Image acquisition was performed using a Zeiss Axio Lab.A1 epifluorescence microscope with a 100/1.4 numerical aperture (NA) oil immersion. Thirty images were captured per sample and analyzed manually.

PfNF54 ABS [2] = system: PfNF54 ABS; parameters: method as in Stampolaki et al.[5]; details: drug-sensitive NF54; ref Stampolaki et al.[5]; read-out: Pf ABS IC50 NF54; cited from earlier work
HepG2 cells [3] = system: HepG2 cells; parameters: method as in Stampolaki et al.[5]; details: compound at 20 μM; ref Stampolaki et al.[5]; cited from earlier work
PfK1 = assay: SYBR Green I proliferation assay, asexual blood stages, multidrug-resistant K1; details: Plasmodium falciparum, K1, read-out: Pf ABS IC50 K1
Method: (§1) P. falciparum asexual parasites were cultured from drug-sensitive NF54 (PfNF54) and multidrug resistant strains PfK1. Parasites were maintained in human erythrocytes (O+, suspended at 5% hematocrit) in RPMI-1640 culture medium (23.81 mM sodium bicarbonate, 0.024 mg/mL gentamycin, 25 mM HEPES pH 7.5, 0.2% D-glucose, 0.2 mM hypoxanthine and Albumax II) under hypoxic conditions (5% CO2, 5% O2 and 90% N2) with moderate shaking (60 rpm) at 37 °C. Cultures were synchronized to >95% in the ring stage with 5% (w/v) D-sorbitol treatment.[28]
(§2) Activity against the asexual stage of P. falciparum was evaluated using the SYBR Green I-based fluorescence assay as previously described.[4],[16] Cellular proliferation was measured on synchronized in vitro PfNF54 ring-stage parasites (1% parasitemia, 2% hematocrit), following drug pressure for 96 h. Chloroquine was used as the positive drug control for complete inhibition of parasite proliferation.

oocyst formation = assay: Standard membrane feeding assay (SMFA), oocyst formation in Anopheles coluzzii; format: in vivo; details: Plasmodium falciparum
Method: Transmission-blocking activity was confirmed in the standard membrane feeding assay (SMFA), by determining transmission-reducing activity (TRA; reduction in oocyst counts) and transmission-blocking activity (TBA, reduction in oocyst prevalence), 8–10 days after feeding female mosquitoes on gametocyte-infected blood, treated with selected compounds (at 2 μM).
SMFA was performed using glass feeders as is outlined.[4],[16] Once again, mature stage V gametocytes (>95%) were treated with 2 μM of each compound for 48 h prior to feeding. Anopheles coluzzii females were allowed to feed on gametocyte cultures (1.5–2.5% gametocytemia, 50% hematocrit in A+ male serum with fresh erythrocytes) in the dark for 40 min. All unfed or partially fed mosquitoes were removed, and remaining females housed for 8–10 days. Mosquitoes were dissected to remove midguts, and oocysts counted under bright field illumination at ×20–×40 magnification. The percentage of block in transmission (transmission-blocking activity; TBA) and the percentage of reduction in the number of oocysts (transmission-reducing activity; TRA) were calculated after normalizing to the control untreated sample.

HepG2 cells [4] = assay: HepG2 cytotoxicity, LDH release assay; details: Homo sapiens, HepG2, 24 h, read-out: HepG2 EC50
Method: (§3) Furthermore, compounds were evaluated against late (stage IV/V) gametocytes from PfNF54 (PfNF54 LGc), with viability detected with PrestoBlue,[15] and orthogonally evaluated for toxicity against a human hepatocellular carcinoma line, HepG2.[16]
(§4) Human hepatocellular liver carcinoma cells (HepG2) were cultivated in vitro in Dulbecco’s Modified Eagle’s Medium (DMEM) supplemented with 10% (v/v) heat inactivated fetal bovine serum and 1% (v/v) penicillin/streptomycin.[14] Cells were detached with trypsin treatment at 80% confluency and were seeded in 96-well plates to adhere for 24 h under 5% CO2, humid (95%) conditions. Cells were subsequently exposed to drug pressure for 24 h and cytotoxicity was then determined using the lactate dehydrogenase (LDH) release assay through the colorimetric detection at 450 nm, as previously outlined.[4],[16]

[5] = HepG2 cytotoxicity, LDH release assay; details: human, HepG2 cells
Method: as §3, §4

PfNF54 ABS [6] = assay: SYBR Green I proliferation assay, asexual blood stages, drug-sensitive NF54; details: for IC50: Plasmodium falciparum, NF54, 96 h, read-out: Pf ABS IC50 NF54
Method: as §1, §2

[7] = stage IV/V gametocytes, 48 h drug pressure
[8] = 48 h drug treatment at 2 μM, single biological repeat, read-out: oocyst formation (% inhibition) TBA
[9] = 48 h drug treatment at 2 μM, single biological repeat, read-out: oocyst formation (% inhibition) TRA

| Structure (SMILES) | IC50 [1, 7] | female gamete inhibition % (female gametes) | IC50 (PfK1) | viability at 24 h, 20 µM [5] | IC50 (PfNF54 ABS [6]) | also measured |
| --- | --- | --- | --- | --- | --- | --- |
| CC(C)=CCC/C(C)=C/CNCCNC1(C)C2CC3CC(C2)CC1C3 (stereo not shown) [Compound 7] | 200 ± 20 nM | 34.05 ± 9.23% | 860 ± 270 nM | – | – | solubility (physchem): 773 µM (≈ 266 µg/mL); microsomal CLint at 1 µM (in vitro; human): 254 µL/min/mg; microsomal CLint at 1 µM (in vitro; mouse): 348 µL/min/mg; microsomal CLint at 1 µM (in vitro; rat): 373 µL/min/mg; inhibition at 2 µM (male gametes (PfNF54); 2 μM): 27.1 ± 14%; IC50 (PfNF54 ABS [2]): 660 ± 160 nM; HepG2 % viability (HepG2 cells [3]): 100%^c |
| CCCCC1(NCCNC/C=C(\C)CCC=C(C)C)C2CC3CC(C2)CC1C3 (stereo not shown) [Compound 3] | 300 ± 30 nM | 67.05 ± 0.39% | 130 ± 30 nM | – | – | inhibition at 2 µM (male gametes (PfNF54); 2 μM): 81.4 ± 8.64%; inhibition at 2 µM (oocyst formation; [8]): 36%; inhibition at 2 µM (oocyst formation; [9]): 11%; IC50 (PfNF54 ABS [2]): 270 ± 40 nM; EC50 (HepG2 cells [4]): 10.2 ± 1.7 µM |
| CC(C)=CCNCCNC1C2CC3CC(C2)CC1C3 (stereo not shown) [Compound 26] | 370 ± 60 nM | – | – | 99% | 4280 ± 360 nM | – |
| C1CCC(CCNCCNC2C3CC4CC(C3)CC2C4)CC1 (stereo not shown) [Compound 24] | > 10000 nM | – | – | 27% | 1240 ± 80 nM | – |
| CC(C)=CCC/C(C)=C/CNCC(=O)NC1C2CC3CC(C2)CC1C3 (stereo not shown) [Compound 17] | > 10000 nM | – | – | – | – | IC50 (PfNF54 ABS [2]): 6490 ± 330 nM; HepG2 % viability (HepG2 cells [3]): 100%^b |
| CC(C)=CCC/C(C)=C/CC/C(C)=C/CNCCNC1C2CC3CC(C2)CC1C3 (stereo not shown) [Compound 21] | 510 ± 70 nM | 86.30 ± 2.58% | 1820 ± 310 nM | 75% | 650 nM | inhibition at 2 µM (male gametes (PfNF54)): 95.5 ± 4.55%; inhibition at 2 µM (oocyst formation; 48 h, read-out: oocyst formation (% inhibition) TBA): 20%; inhibition at 2 µM (oocyst formation; 48 h, read-out: oocyst formation (% inhibition) TRA): 56% |
| CC(C)=CCC/C(C)=C/CN(C)CCNC1C2CC3CC(C2)CC1C3 (stereo not shown) [Compound 14] | > 10000 nM | – | – | 100% | 1090 ± 350 nM | – |
| CC(C)=CCC/C(C)=C/CNCCNC1CC2CCC1C2 (stereo not shown) [Compound 10] | 500 ± 70 nM | – | – | 97% | 1170 ± 200 nM | solubility (physchem): 155 µM (≈ 45 µg/mL) |
| CC(C)=CCC/C(C)=C/CNCCNC12CC3CC(CC(C3)C1)C2 [Compound 9] | 700 ± 10 nM | 90.50 ± 7.17% | 2320 ± 550 nM | – | 990 ± 210 nM | inhibition at 2 µM (male gametes (PfNF54); 2 μM): 96.7 ± 3.33%; inhibition at 2 µM (oocyst formation; [8]): 47%; inhibition at 2 µM (oocyst formation; [9]): 70%; EC50 (HepG2 cells [4]): 12.9 ± 1.4 µM |
| CCCC1(NCCNC/C=C(\C)CCC=C(C)C)C2CC3CC(C2)CC1C3 (stereo not shown) [Compound 6] | 370 ± 20 nM | 64.59 ± 12.33% | 1330 ± 500 nM | – | 500 ± 140 nM | solubility (physchem): 334 µM (≈ 124 µg/mL); microsomal CLint at 1 µM (in vitro; human): 322 µL/min/mg; microsomal CLint at 1 µM (in vitro; mouse): 308 µL/min/mg; microsomal CLint at 1 µM (in vitro; rat): 400 µL/min/mg; inhibition at 2 µM (male gametes (PfNF54); 2 μM): 34.6 ± 14.3%; inhibition at 2 µM (oocyst formation; [8]): 67%; inhibition at 2 µM (oocyst formation; [9]): 53%; HepG2 % viability (HepG2 cells [3]): 100^%c |
| CCC1(NCCNC/C=C(\C)CCC=C(C)C)C2CC3CC(C2)CC1C3 (stereo not shown) [Compound 2] | 580 ± 40 nM | 78.88 ± 4.46% | 100 ± 20 nM | – | – | solubility (physchem): 840 µM (≈ 301 µg/mL); inhibition at 2 µM (male gametes (PfNF54); 2 μM): 95.5 ± 4.55%; IC50 (PfNF54 ABS [2]): 160 ± 70 nM; EC50 (HepG2 cells [4]): 5.21 ± 1.33 µM; fold improvement in ABS activity compared to 1 (PfNF54 ABS [6]; PfNF54 ABS): 10 fold |
| CC(C)=CCC/C(C)=C/CNCCOC1C2CC3CC(C2)CC1C3 (stereo not shown) [Compound 16] | > 10000 nM | – | – | 99% | 3780 ± 750 nM | – |
| CC(C)=CCC/C(C)=C/CNCCNC1CC2CCC1CC2 (stereo not shown) [Compound 11] | 220 ± 40 nM | – | – | 100% | 1660 ± 300 nM | – |
| CC(C)=CCC/C(C)=C/CNCCNCc1ccccc1 [Compound 12] | 410 ± 200 nM | – | – | 94% | 4320 ± 600 nM | solubility (physchem): 160 µM (≈ 45.8 µg/mL) |
| CC(C)=CCC/C(C)=C/CNC(=O)CNC1C2CC3CC(C2)CC1C3 (stereo not shown) [Compound 18] | – | – | – | – | – | IC50 ([1]; 48 h): > 10000 nM; HepG2 % viability (HepG2 cells [3]): 99%^b |
| CC(C)=CCC/C(C)=C/COCCNC1C2CC3CC(C2)CC1C3 (stereo not shown) [Compound 15] | > 10000 nM | – | – | 100% | 2460 ± 140 nM | – |
| c1ccc(CNCCNC2C3CC4CC(C3)CC2C4)cc1 (stereo not shown) [Compound 25] | 110 ± 60 nM | – | – | 91% | 3990 ± 280 nM | – |

Reference: PMC11406516, “The Tuberculosis Drug Candidate SQ109 and Its Analogs Have Multistage Activity against Plasmodium falciparum” (ACS Infectious Diseases, 2024)
